What was measured:
SNAP protein tags = molecular target: T1, SNAP protein tags (Homo sapiens, UniProt P16455, A127T/A154D/C150Q/C62A/E30R/G131K/G132T/G153L/K125A/K32I/L33F/M134L/N157G/Q115S/Q116H/R128A/R135S/S151G/S152D/S159E); experiment: Fluorescence activation of probe after incubation with corresponding protein tag (SNAP); assay type: biochemical; settings: probe 5 μM, protein tag 10 μM, 37° C., 1 hr
T1 sequence (P16455 1-182 E30R/K32I/L33F/C62A/Q115S/Q116H/K125A/A127T/R128A/G131K/G132T/M134L/R135S/C150Q/S151G/S152D/G153L/A154D/N157G/S159E): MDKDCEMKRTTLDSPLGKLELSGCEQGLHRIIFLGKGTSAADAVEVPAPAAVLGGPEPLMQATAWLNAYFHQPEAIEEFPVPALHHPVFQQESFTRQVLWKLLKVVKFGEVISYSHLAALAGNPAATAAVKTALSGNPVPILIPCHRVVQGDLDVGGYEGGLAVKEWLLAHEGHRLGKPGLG
Experimental: (§1) Probes were mixed with corresponding protein tags to obtain mixed samples, in which the final probe concentration was 5 μM, and the final protein tag concentration was 10 μM. The mixed samples were incubated 37° C. for 1 hr, fluorescence spectrophotometer was used to detect the change in fluorescence intensity, and the results are shown in Table 1.
(§2) From the quantum yield of probe bound to protein tag, after reacting with the protein tags, the probes of the Examples could be detected to have significant signal enhancement in corresponding excitation transmission channels, the fluorescence activation multiple reached several hundreds to a thousand or more, and the brightness was high, which illustrates that after the probes of the Examples are bound to the protein tags, fluorescence of the probes can be activated, and the probes have good fluorescent molecular switching properties. In contrast, though the fluorescence of the reference probes could also be activated, the quantum yield of activated fluorescence was very low, and the brightness was very poor. In particular, in view of comparison results between probe 98 and reference probe 99, probe 101 and reference probe 102, probe 103 and reference probe 104, probe 105 and reference probe 106, probe 107 and reference probe 108, probe 109 and reference probe 110, probe 111 and reference probe 112, probe 114 and reference probe 115, probe 117 and reference probe 118, probe 120 and reference probe 121 in Table 1, for the same fluorescent dye, when the ligand is connected to the electron donor part of the fluorescent dye, the fluorescence activation brightness of the probe is much higher than the reference probe in which ligand is connected to the electron acceptor part of the fluorescent dye.

[1] = Fluorescence of free probe prior to binding to a protein tag; assay type: physicochemical
Experimental: as §1, §2

[2] = Viscosity responsiveness: fluorescence emission spectra of probes in glycerol and methanol; assay type: physicochemical; settings: for Emission wavelength: excited at maximum excitation wavelength of each probe; for Fluorescence ratio in glycerol to methanol: probe 1×10^−5 M
Experimental: Probes 1 to 98, 101, 103, 105, 107, 109, 111, 114, 117, and 120, and the reference probes 99, 100, 102, 104, 106, 108, 110, 112, 113, 115, 116, 118, 119, 121, BG-CCVJ and BG-Gly-CCVJ were dissolved in dimethyl sulfoxide, respectively, to prepare mother liquors having a concentration of 1×10^−2 M, to each of which glycerol and methanol were added and uniformly mixed, to prepare solutions finally having a concentration of 1×10^−5 M. Depending on the probes, fluorescence emission spectra of the probes were detected successively with the maximum excitation wavelength of each probe under the same conditions, and the results were shown in Table 1.
That is, these probes are sensitive to viscosity changes and have viscosity responsiveness.

| Structure (SMILES) | Fluorescence activation multiple (SNAP protein tags) | Quantum yield of probe bound to protein tag (SNAP protein tags) | Quantum yield of free probe [1] | Emission wavelength [2] [nm] | Fluorescence ratio in glycerol to methanol [2] |
| --- | --- | --- | --- | --- | --- |
| CC(C)(C)OC(=O)/C(C#N)=C/c1cc2ccc(N(CCO)CCOC(=O)NCc3ccc(COc4nc(N)nc5[nH]cnc45)cc3)cc2s1 [probe 37] | 469 | 0.56 | 0.0012 | 570 | 1135 |
| CN(CCOC(=O)NCc1ccc(COc2nc(N)nc3[nH]cnc23)cc1)c1cc2sc(/C=C(\C#N)c3nc4ccccc4o3)cc2s1 [probe 22] | 610 | 0.36 | <0.001 | 590 | 1821 |
| CN(CCOC(=O)NCc1ccc(COc2nc(N)nc3[nH]cnc23)cc1)c1ccc2c(c1)sc1cc(C=C(C#N)C#N)sc12 [probe 64] | 519 | 0.48 | <0.001 | 620 | 632 |
| CN(CCOC(=O)NCc1ccc(COc2cc(Cl)nc(N)n2)cc1)c1cc2sc(/C=C(\C#N)C(=O)OC(C)(C)C)cc2s1 [probe 24] | 590 | 0.48 | <0.001 | 555 | 1681 |
| CN(CCOC(=O)NCc1ccc(COc2nc(N)nc3[nH]cnc23)cc1)c1ccc(-c2ccc(/C=C(\C#N)C(=O)O)s2)cc1 [probe 117] | 562 | 0.39 | <0.001 | 620 | 321 |
| COCCOCCOCCOCCOCCN(CCOC(=O)NCc1ccc(COc2nc(N)nc3[nH]cnc23)cc1)c1ccc(/C=C(\C#N)C(=O)OC(C)(C)C)cc1 [probe 12] | 351 | 0.41 | 0.0012 | 482 | 405 |
| CC1=CC(C)(C)N(CCOC(=O)NCc2ccc(COc3nc(N)nc4[nH]cnc34)cc2)c2ccc(/C=C(\C#N)c3nc4ccccc4s3)cc21 [probe 89] | 421 | 0.32 | <0.001 | 612 | 129 |
| CN(CCOC(=O)NCc1ccc(COc2nc(N)nc3[nH]cnc23)cc1)c1ccc2cc(/C=C(\C#N)c3nc4ccccc4o3)sc2c1 [probe 31] | 421 | 0.41 | <0.001 | 607 | 1135 |
| CN(CCOC(=O)NCc1ccc(COc2nc(N)nc3[nH]cnc23)cc1)c1ccc2nc(/C=C(\C#N)c3nc4ccccc4o3)oc2c1 [probe 46] | 563 | 0.21 | <0.001 | 620 | 682 |
| COCCNC(=O)/C(C#N)=C/c1ccc(-c2ccc(N(C)CCOC(=O)NCc3ccc(COc4nc(N)nc5[nH]cnc45)cc3)s2)s1 [probe 78] | 369 | 0.28 | <0.001 | 672 | 189 |
| CN(CCOC(=O)NCc1ccc(COc2cc(Cl)nc(N)n2)cc1)c1ccc2nc(/C=C(\C#N)C(=O)OC(C)(C)C)oc2c1 [probe 44] | 1586 | 0.37 | <0.001 | 603 | 1459 |
| CN(CCOC(=O)NCc1ccc(COc2nc(N)nc3[nH]cnc23)cc1)c1cc2cc3sc(/C=C(\C#N)C(=O)OC(C)(C)C)cc3cc2s1 [probe 70] | 258 | 0.68 | 0.0026 | 640 | 131 |
| CN(CCOC(=O)NCc1ccc(COc2nc(N)nc3[nH]cnc23)cc1)c1ccc(C#C/C=C(\C#N)C(=O)O)cc1 [probe 109] | 546 | 0.33 | <0.001 | 566 | 341 |
| CN(CCO)c1ccc(/C=C(\C#N)C(=O)NCc2ccc(COc3nc(N)nc4[nH]cnc34)cc2)cc1 [Reference Probe 102, reference compound] | 31 | 0.02 | <0.001 | 480 | 212 |
| CN(CCOC(=O)NCc1ccc(COc2nc(N)nc3[nH]cnc23)cc1)c1ccc2nc(/C=C(\C#N)C(=O)OC(C)(C)C)sc2c1 [probe 51] | 392 | 0.25 | <0.001 | 625 | 359 |
| CN(CCOC(=O)NCc1ccc(COc2nc(N)nc3[nH]cnc23)cc1)c1ccc(/C=C(\C#N)C(=O)O)cc1 [probe 101] | 463 | 0.37 | <0.001 | 481 | 362 |
| COCCNC(=O)/C(C#N)=C/c1ccc(-c2ccc(N(C)CCOC(=O)NCc3ccc(COc4nc(N)nc5[nH]cnc45)cc3)cc2)s1 [probe 67] | 576 | 0.36 | <0.001 | 620 | 276 |
| CN(CCO)c1ccc2cc(/C=C(\C#N)C(=O)NCc3ccc(COc4nc(N)nc5[nH]cnc45)cc3)sc2c1 [Reference Probe 112, reference compound] | 41 | 0.01 | <0.001 | 570 | 211 |
| CN(CCOC(=O)NCc1ccc(COc2nc(N)nc3[nH]cnc23)cc1)c1ccc2cc(/C=C(\C#N)C(=O)OC(C)(C)C)sc2c1 [probe 40] | 421 | 0.41 | 0.001 | 570 | 759 |
| CN(C)c1ccc(/C=C(\C#N)C(=O)NCc2ccc(COc3nc(N)nc4[nH]cnc34)cc2)cc1 [Reference Probe 100, reference compound] | 43 | 0.011 | <0.001 | 480 | 213 |
| CN1C(=O)/C(=C\c2nc3ccc(N(C)CCOC(=O)NCc4ccc(COc5nc(N)nc6[nH]cnc56)cc4)cc3o2)N=C1c1ccccc1 [probe 50] | 416 | 0.29 | <0.001 | 612 | 358 |
| CN(CCOC(=O)NCc1ccc(COc2nc(N)nc3[nH]cnc23)cc1)c1ccc(/C=C(\C#N)c2nc3ccccc3s2)cc1 [probe 3] | 139 | 0.27 | 0.0019 | 532 | 399 |
| CN(CCOC(=O)NCc1ccc(COc2nc(N)nc3[nH]cnc23)cc1)c1cc2c(s1)-c1sc(/C=C(/C#N)c3nc4ccccc4o3)cc1[Si]2(C)C [probe 75] | 211 | 0.44 | 0.0021 | 700 | 105 |
